Measured values as given in US10973831B2, “Fluoropiperidine compounds as pure 5-HT 6 receptor antagonists” (SUVEN LIFE SCIENCES LIMITED, priority 2017, dated 2021).

How the values were obtained:
[1] = Rodent pharmacokinetic study; type: in vivo, male Wistar rats; settings: male, Wistar, plasma, rat
Method: Male Wistar rats (260±50 grams) were used as experimental animals. Animals were housed individually in polypropylene cage. Two days prior to study, male Wistar rats were anesthetized with isoflurane for surgical placement of jugular vein catheter. Rats were randomly divided for oral (3 mg/kg) and intravenous (1 mg/kg) dosing (n=3/group) and fasted overnight before oral dosing (p.o.). However, rats allocated to intravenous dosing food and water was provided ad libitum.
At pre-determined point, blood was collected through jugular vein and replenished with an equivalent volume of normal saline. Collected blood was transferred into a labeled eppendorf tube containing 10 μL, of heparin as an anticoagulant. Typically blood samples were collected at following time points: 0.08, 0.25, 0.5, 1, 2, 4, 6, 8, and 24 hours post dose. Blood was centrifuged at 4000 rpm for 10 minutes. Plasma was separated and stored frozen at −80° C. until analysis. The concentrations of the test compounds were quantified in plasma by qualified LC-MS/MS method using suitable extraction technique. The test compounds were quantified in the calibration range around 1-1000 ng/mL in plasma. Study samples were analyzed using calibration samples in the batch and quality control samples spread across the batch.
Pharmacokinetic parameters Cmax, AUC1, T1/2, Clearance and Bioavailability (F) were calculated by non-compartmental model using standard non-compartmental model by using Phoenix WinNonlin 6.2 or 6.4 version Software package.

[2] = Non-clinical toxicology, repeated dose toxicity study in rat; type: in vivo; settings: rat, female rats
Method: (§1) The safety of the example 1 of instant invention and comparator example of U.S. Pat. No. 7,378,415 were evaluated in repeated dose toxicity study in rat.
(§2) Female rats were used as experimental animals for evaluating the toxicity profile of example 1 of instant invention and the comparator example of U.S. Pat. No. 7,378,415.
(§3) During the study, female rats were dosed at incremental doses for minimum of 4 days. Toxicity assessment was done on the mortality, clinical observation, change in the body weight, feed consumption, clinical and anatomical pathology. Systemic exposures were also estimated for both of the compounds. All quantitative variables are compared with control group using one-way ANOVA followed by Dunnet's post-hoc test on GraphPad Prism Software version 4, 2003.

Female rats = test: as above; type: in vivo; settings: repeated dose toxicity
Method: as §1, §2, §3

[3] = biological target: T1, recombinant human 5-HT6 receptor (Homo sapiens, UniProt P50406); test: Determination of Kb for 5-HT6 receptor (CHO cells, pCRE-Luc reporter, cAMP); type: cell-based; settings: 10 μM serotonin, luciferase reporter
T1 construct: expressed in transfected cells
T1 sequence (P50406 whole entry): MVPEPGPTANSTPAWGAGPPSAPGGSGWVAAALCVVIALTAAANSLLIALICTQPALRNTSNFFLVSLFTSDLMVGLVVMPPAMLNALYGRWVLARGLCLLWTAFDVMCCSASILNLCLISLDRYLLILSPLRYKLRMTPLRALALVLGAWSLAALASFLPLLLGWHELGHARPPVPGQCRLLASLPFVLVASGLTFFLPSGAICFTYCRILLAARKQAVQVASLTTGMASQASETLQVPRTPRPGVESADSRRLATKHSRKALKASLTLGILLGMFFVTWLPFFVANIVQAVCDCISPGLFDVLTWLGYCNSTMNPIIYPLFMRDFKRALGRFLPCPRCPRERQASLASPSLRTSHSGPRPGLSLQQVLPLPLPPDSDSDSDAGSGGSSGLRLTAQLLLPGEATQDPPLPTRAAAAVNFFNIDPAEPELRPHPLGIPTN
Method: Determination of Kb for 5-HT6 Receptor: A stable CHO cell line expressing recombinant human 5-HT6 receptor and pCRE-Luc reporter system was used for cell based assay. The assay offers a non-radioactive based approach to determine binding of a compound to GPCRs. In this specific assay, the level of intracellular cyclic AMP which is modulated by activation or inhibition of the receptor is measured. The recombinant cells harbor luciferase reporter gene under the control of cAMP response element. The above cells were plated in 96 well clear bottom white plates at a density of 5×10^4 cells/well using Hams F12 medium containing 10% fetal bovine serum (FBS) and incubated overnight at 37° C. and 5% CO2 followed by serum starvation for 18-20 hrs. Increasing concentrations of test compounds were added along with 10 μM serotonin in Opti-MEM to the cells. The incubation was continued at 37° C. in CO2 incubator for 4 hours. After 4 hours cells were lysed using lysis buffer and luciferase assay buffer was added to each well and counts per second were recorded using luminescence counter. From counts per second (CPS) obtained, percent binding was calculated for each well by taking 10 μM 5-HT as 100% bound and vehicle as 0% bound. The percent bound values were plotted against compound concentrations and data were analyzed using a nonlinear, iterative curve-fitting computer program of Graph pad Prism 4 software. The Kb values were calculated using concentration of the agonist used in the assay.

[4] = Rodent brain penetration study; type: in vivo, male Wistar rats; settings: male, Wistar, brain and plasma, po; rat, 3 mg/kg, p.o., brain-plasma ratio; read-out: Single dose rat brain penetration (Cb/Cp)
Method: Male Wistar rats (260±40 grams) were used as experimental animals. Three animals were housed in each cage. Animals were given water and food ad libitum throughout the experiment and maintained on a 12 hours light/dark cycle.
Brain penetration was determined in discrete manner in rats. One day prior to dosing day, male Wistar rats were acclimatized and randomly grouped according to their weight. At each time point (0.50, 1 and 2 hours) n=3 animals were used.
The test compounds were suitably preformulated and administered orally at (free base equivalent) 3 mg/kg. Blood samples were collected via cardiac puncture by using isoflurane anesthesia. The animals were sacrificed to collect brain tissue. Plasma was separated and brain samples were homogenized and stored frozen at −20° C. until analysis. The concentrations of the test compounds in plasma and brain were determined using LC-MS/MS method.
The test compounds were quantified in plasma and brain homogenate by qualified LC-MS/MS method using suitable extraction technique. The test compounds were quantified in the calibration range of 1-1000 ng/mL in plasma and brain homogenate. Study samples were analyzed using calibration samples in the batch and quality control samples spread across the batch. Extent of brain-plasma ratio (Cb/Cp) was calculated.

recombinant human 5-HT2A = biological target: T2, recombinant human 5-HT2A (Homo sapiens, UniProt P28223); test: Determination of 5-HT2A binding ([3H]-Ketanserin radioligand, membranes); settings: human 5-HT2A membranes, [3H]-Ketanserin 1.75 nM
T2 construct: purchased Perkin Elmer ES-313-M400UA
T2 sequence (P28223 whole entry): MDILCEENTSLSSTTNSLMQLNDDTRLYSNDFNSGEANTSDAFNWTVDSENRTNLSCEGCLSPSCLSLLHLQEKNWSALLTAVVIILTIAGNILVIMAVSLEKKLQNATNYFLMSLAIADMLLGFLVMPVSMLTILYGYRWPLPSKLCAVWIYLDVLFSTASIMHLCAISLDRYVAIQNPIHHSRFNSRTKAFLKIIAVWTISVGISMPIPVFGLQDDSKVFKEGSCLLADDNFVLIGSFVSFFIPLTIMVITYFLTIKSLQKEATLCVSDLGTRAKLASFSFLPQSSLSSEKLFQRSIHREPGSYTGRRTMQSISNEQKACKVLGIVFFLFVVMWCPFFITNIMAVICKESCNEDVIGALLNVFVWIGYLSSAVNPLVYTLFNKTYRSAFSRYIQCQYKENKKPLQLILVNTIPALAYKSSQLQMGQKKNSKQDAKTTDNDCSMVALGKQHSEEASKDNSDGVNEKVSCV
Method: Membrane preparation from recombinant human 5-HT2A cell line (Cat no. ES-313-M400UA) and radio ligand Ketanserin Hydrochloride, [Ethylene-^3H]-(R-41468) (Cat no. NET791250UC) were purchased from Perkin Elmer. All other reagents used in buffer preparation were purchased from Sigma. The final ligand concentration was 1.75 nM; non-specific determinant was 1-NP [10 μM] and 5-HT2A membrane protein (5 μg/well). 1-NP was used as a positive control. Reactions were carried out in 67 mM Tris pH 7.6 containing 0.5 mM EDTA buffer for 60 minutes at 25° C. Reaction was stopped by rapid filtration followed by six washes of the binding mixture using 96 well harvest plate (Millipore Cat no. MSFBNXB50) pre coated with 0.33% polyethyleneimine. The plate was dried and the bound radioactivity collected on the filters was determined by scintillation counting using MicroBeta TriLux. Radio ligand binding in the presence of non-labeled compound was expressed as a percent of the total binding and plotted against the log concentration of the compound. Ki values were determined using a nonlinear, iterative curve-fitting computer program of Graph pad Prism 4 software.

Structure (SMILES): Cl.O=S(=O)(c1ccccc1)c1ccc2c(c1)OCCN2C1CCNCC1F (single isomer, unassigned; peak iii) [Example 1, 7-Phenylsulfonyl-4-(3-fluoropiperidin-4-yl)-3,4-dihydro-2H-benzo[1,4]oxazine hydrochloride (Peak III)]
- AUC(0-t) ([1]; intravenous (bolus), 1 mg/kg): 412 ± 37 ng·h/mL
- clearance ([1]; intravenous (bolus), 1 mg/kg): 40 ± 3 mL/min/kg
- half-life ([1]; intravenous (bolus), 1 mg/kg): 4.5 ± 0.1 h
- bioavailability ([1]; oral (gavage) 3 mg/kg vs intravenous 1 mg/kg, read-out: F (Bioavailability)): 81 ± 1%
- AUC(0-t) ([1]; oral (gavage), 3 mg/kg): 1000 ± 15 ng·h/mL
- Cmax ([1]; oral (gavage), 3 mg/kg): 84 ± 14 ng/mL
- half-life ([1]; oral (gavage), 3 mg/kg): 5.6 ± 0.9 h
- NOAEL at 4 days ([2]; in vivo, 4-Day repeat tox): 300 mg/kg
- MTD ([2]; in vivo, repeated incremental doses, read-out: Maximum Tolerated Dose): ≥ 300 mg/kg
- AUC ([2]; plasma, repeated dose toxicity study, read-out: AUC (systemic exposure in toxicity study)): 38100 ng·h/mL
- Cmax ([2]; plasma, repeated dose toxicity study, read-out: Cmax (systemic exposure in toxicity study)): 2420 ng/mL
- Findings (mortality) (Female rats): No death up
- Findings (mortality) (Female rats; listed as example 1): no deaths were observed at doses as high as 300 mg/kg
- Kb [3]: 0.04 nM
- Kp [4]: 0.78 ± 0.2
- Ki (recombinant human 5-HT2A): 130 nM
